Results taken from ChEMBL document CHEMBL3044757, “Design, synthesis and in vitro antimicrobial activity of novel phenylbenzamido-aminothiazole-based azasterol mimics” (2013).
≈ marks a conversion by molar mass, not a printed value. Calls of active or inactive are those of the source. No cut-off for these calls is given here.

Columns and labels:
Format in all cases: functional
Escherichia coli = test: Antibacterial activity against Escherichia coli assessed as growth inhibition after 18 to 24 hr by resazurin assay
Alternaria alternata [1] = test: Antifungal activity against Alternaria alternata assessed as inhibition of fungal spore germination after 24 hr by compound microscopic analysis relative to nystatin
Bacillus licheniformis = test: Antibacterial activity against Bacillus licheniformis assessed as growth inhibition after 18 to 24 hr by resazurin assay
[2] = system: Mycobacterium tuberculosis; test: Antibacterial activity against Mycobacterium tuberculosis H37Rv assessed as growth inhibition after 5 days by microplate Alamar blue assay; details: 120 h
Enterobacter cloacae = test: Antibacterial activity against Enterobacter cloacae assessed as growth inhibition after 18 to 24 hr by resazurin assay
Curvularia lunata [3] = test: Antifungal activity against Curvularia lunata assessed as inhibition of fungal spore germination after 24 hr by compound microscopic analysis relative to nystatin
Fusarium oxysporum [4] = test: Antifungal activity against Fusarium oxysporum assessed as inhibition of fungal spore germination after 24 hr by compound microscopic analysis relative to control
Curvularia lunata [5] = test: Antifungal activity against Curvularia lunata assessed as inhibition of fungal spore germination after 24 hr by compound microscopic analysis relative to control
Alternaria alternata [6] = test: Antifungal activity against Alternaria alternata assessed as inhibition of fungal spore germination after 24 hr by compound microscopic analysis relative to control
Fusarium oxysporum [7] = test: Antifungal activity against Fusarium oxysporum assessed as inhibition of fungal spore germination after 24 hr by compound microscopic analysis relative to nystatin
[8] = dose or concentration not given here

| Compound | MIC (Escherichia coli) [µg/mL] | fold change (FC) (Alternaria alternata [1]) | MIC (Bacillus licheniformis) [µg/mL] | MIC [2] [µg/mL] | MIC (Enterobacter cloacae) [µg/mL] | fold change (FC) (Curvularia lunata [3]) | inhibition (Fusarium oxysporum [4]) | inhibition (Curvularia lunata [5]) | inhibition (Alternaria alternata [6]) | fold change (FC) (Fusarium oxysporum [7]) | inhibition (Fusarium oxysporum [4]; [8]) [%] | inhibition (Curvularia lunata [5]; [8]) [%] | inhibition (Alternaria alternata [6]; [8]) [%] |
| --- | --- | --- | --- | --- | --- | --- | --- | --- | --- | --- | --- | --- | --- |
| Nc1nc(-c2ccc(NC(=O)c3ccccc3)cc2)cs1 | 7.8 (≈ 26.4 µM) | 1.31 | 0.125 (≈ 0.423 µM) | 16 (≈ 54.2 µM) | 250 (≈ 846 µM) | 1.06 |  |  |  |  |  |  |  |
| O=C(N[C@H](CO)[C@H](O)c1ccc([N+](=O)[O-])cc1)C(Cl)Cl [CHLORAMPHENICOL] | 3.9 (≈ 12.1 µM) |  | 0.0039 (≈ 0.0121 µM) |  | 3.9 (≈ 12.1 µM) |  |  |  |  |  |  |  |  |
| COc1ccc(/N=N/c2sc(N)nc2-c2ccc(NC(=O)c3ccccc3)cc2)cc1 | 7.8 (≈ 18.2 µM) |  | 0.125 (≈ 0.291 µM) |  | 250 (≈ 582 µM) |  | inactive | inactive | inactive |  |  |  |  |
| Nc1nc(-c2ccc(NC(=O)c3ccccc3)cc2)c(/N=N/c2ccccc2)s1 | 62.5 (≈ 156 µM) |  | 0.25 (≈ 0.626 µM) |  | 250 (≈ 626 µM) |  | inactive | inactive | inactive |  |  |  |  |
| Nc1nc(-c2ccc(NC(=O)c3ccccc3)cc2)c(/N=N/c2cccc(Cl)c2)s1 | 250 (≈ 576 µM) |  | 0.125 (≈ 0.288 µM) |  | 250 (≈ 576 µM) |  | inactive | inactive | inactive |  |  |  |  |
| Nc1nc(-c2ccc(NC(=O)c3ccccc3)cc2)c(/N=N/c2cccc([N+](=O)[O-])c2)s1 | 62.5 (≈ 141 µM) |  | 0.0625 (≈ 0.141 µM) |  | 250 (≈ 562 µM) |  | inactive | inactive | inactive |  |  |  |  |
| Nc1nc(-c2ccc(NC(=O)c3ccccc3)cc2)c(/N=N/c2ccccc2Cl)s1 | 125 (≈ 288 µM) | 1.8 | 0.125 (≈ 0.288 µM) |  | 250 (≈ 576 µM) | 1.73 |  |  |  | 1.17 |  |  |  |
| Nc1nc(-c2ccc(NC(=O)c3ccccc3)cc2)c(/N=N/c2ccc(Cl)cc2)s1 | 250 (≈ 576 µM) |  | 0.125 (≈ 0.288 µM) |  | 250 (≈ 576 µM) |  | inactive | inactive | inactive |  |  |  |  |
| Nc1nc(-c2ccc(NC(=O)c3ccccc3)cc2)c(/N=N/c2ccccc2[N+](=O)[O-])s1 | 125 (≈ 281 µM) | 1.71 | 0.125 (≈ 0.281 µM) |  | 250 (≈ 562 µM) |  |  |  |  | 1.49 |  |  |  |
| Nc1nc(-c2ccc(NC(=O)c3ccccc3)cc2)c(/N=N/c2ccc(Br)cc2)s1 | 250 (≈ 523 µM) | 1.11 | 0.25 (≈ 0.523 µM) |  | 250 (≈ 523 µM) |  |  |  |  | 2.07 |  |  |  |
| Cc1ccc(/N=N/c2sc(N)nc2-c2ccc(NC(=O)c3ccccc3)cc2)cc1 | 125 (≈ 302 µM) |  | 0.125 (≈ 0.302 µM) |  | 250 (≈ 605 µM) |  | inactive | inactive | inactive |  |  |  |  |
| Nc1nc(-c2ccc(NC(=O)c3ccccc3)cc2)c(/N=N/c2ccc([N+](=O)[O-])cc2)s1 | 62.5 (≈ 141 µM) |  | 0.0312 (≈ 0.0703 µM) |  | 125 (≈ 281 µM) |  |  |  |  |  |  |  |  |
| NYSTATIN |  |  |  |  |  |  |  |  |  |  | 100 | 100 | 100 |
